Data taken from patent publication US20250018068A1, “4H-IMIDAZO[1,5-B]PYRAZOLE DERIVATIVES FOR DIAGNOSIS” (AC IMMUNE SA, priority 2021, published 2025).
Where a name gives a salt, the structure may show the parent alone. Read-outs that look alike come from different tables or passages of the source.

Molecular target: T1, PD brain-derived alpha-synuclein aggregates (Homo sapiens, UniProt P37840)
T1 construct: from tissue; host or cells: human PD donor brain, sarkosyl-insoluble pellet
Assay: Micro-radiobinding competition assay for the determination of binding affinity
Settings: for inhibition at 0.1 µM: read-out: Micro-radiobinding competition assay Competition at 100 nM (%); for inhibition at 1 µM: read-out: Micro-radiobinding competition assay Competition at 1 μM (%); for Ki: * = mean of two independent experiments, two donors
Description: The procedure was adapted from the protocol described in Spillantini et al., 1998. Frozen tissue blocks from PD donors were thawed on ice and homogenized using a glass dounce homogenizer. The homogenate was then centrifuged at 11,000×g (12,700 RPM) in an ultracentrifuge (Beckman, XL100K) for 20 minutes at 4° C. using a pre-cooled 70.1 rotor (Beckman, 342184). Pellets were resuspended in extraction buffer [10 mM Tris-HCl pH 7.4, 10% sucrose, […], 1% protease inhibitor (Calbiochem 539131), 1 mM EGTA, 1% phosphatase inhibitor (Sigma P5726 and P0044)] and centrifuged at 15,000×g (14,800 RPM, a 70.1 Ti rotor) for 20 minutes at 4° C. Pellets were discarded and sarkosyl (20% stock solution, Sigma L7414) was added to the supernatants to a final concentration of 1% at room temperature for one hour. This solution was then centrifuged at 100,000×g (38,000 RPM, 70.1 Ti rotor) for one hour at 4° C. Pellets containing enriched alpha-synuclein aggregates were resuspended in PBS and stored at −80° C. until use.
PD brain-derived alpha-synuclein aggregates were spotted onto microarray slides. The slides were incubated with [^3H]-alpha-synuclein reference at 6 nM or 20 nM and the example compounds (non-radiolabelled) at 1 μM and 100 nM. In some cases, the non-radiolabelled example compounds were further assessed for a range of different concentrations, varying from 0.05 nM to 2 μM. After incubation, slides were washed and scanned by a real-time autoradiography system (BeaQuant, ai4R). Quantification of the signal was performed by using the Beamage image analysis software (ai4R). Non-specific signal was determined with an excess of non-radiolabelled Example-1 (2 μM) and specific binding was calculated by subtracting the non-specific signal from the total signal. Competition was calculated as percent, where 0% was defined as the specific binding in the presence of vehicle and 100% as the values obtained in the presence of excess of the non-radiolabelled Example-1. Ki values were calculated in GraphPad Prism7 by applying a nonlinear regression curve fit using a one site, specific binding model. All measurements were performed with at least two technical replicates. For compounds tested in more than one experiment, the mean of the replicates or Ki values in independent experiments is reported.
Results: Example compounds were assessed for their potency to compete with the binding of [^3H]-reference alpha-synuclein ligand to PD patient brain-derived alpha-synuclein aggregates. Results of the micro-radiobinding competition assay for the example compounds tested are shown in Table 3 as: % competition at 1 μM and 100 nM.
Table 3: Assessment of binding affinity by micro-radiobinding competition assay on human PD brain-derived alpha-synuclein aggregates. Percent (%) competition over the tritiated [^3H]-Example-1 ligand in the presence of 1 μM and 100 nM of example compounds 1-9. Ki values are also shown for selected example compounds. *, mean of Ki values in two independent experiments using PD brain-derived homogenates from two different donors.

[1] = 100 nM non-radiolabelled compound, competition over tritiated [3H]-Example-1 ligand, human PD brain-derived alpha-synuclein aggregates
[2] = 1 μM non-radiolabelled compound, competition over tritiated [3H]-Example-1 ligand, human PD brain-derived alpha-synuclein aggregates
[3] = human PD brain-derived alpha-synuclein aggregates

SMILES: O=C1N(c2cncs2)Cc2cc(-c3ccc(N4CCC(F)C4)nc3)nn21 (stereo in doubt) [Example 16, (R)-2-(6-(3-fluoropyrrolidin-1-yl)pyridin-3-yl)-5-(thiazol-5-yl)-4,5-dihydro-6H-imidazo[1,5-b]pyrazol-6-one hydrogen chloride salt]
- inhibition at 0.1 µM [1]: 79%
- inhibition at 1 µM [2]: 98%

SMILES: O=C1N(c2cccnc2)Cc2cc(-c3ccc(N4CC[C@@H](F)C4)nc3)nn21 [Example 2, (R)-2-(6-(3-fluoropyrrolidin-1-yl)pyridin-3-yl)-5-(pyridin-3-yl)-4H-imidazo[1,5-b]pyrazol-6(5H)-one hydrochloride]
- inhibition at 0.1 µM [1]: 87%
- inhibition at 1 µM [2]: 97%
- Ki [3]: 46 nM

SMILES: O=C1N(c2ccccn2)Cc2cc(-c3ccc(N4CC[C@@H](F)C4)nc3)nn21 [Example 3, (R)-2-(6-(3-fluoropyrrolidin-1-yl)pyridin-3-yl)-5-(pyridin-2-yl)-4H-imidazo[1,5-b]pyrazol-6(5H)-one]
- inhibition at 0.1 µM [1]: 74%
- inhibition at 1 µM [2]: 89%

SMILES: O=C1N(c2ccccn2)Cc2cc(-c3ccc(N4CC[C@H](F)C4)nc3)nn21 [Example 4, (S)-2-(6-(3-fluoropyrrolidin-1-yl)pyridin-3-yl)-5-(pyridin-2-yl)-4H-imidazo[1,5-b]pyrazol-6(5H)-one hydrochloride]
- inhibition at 0.1 µM [1]: 94%
- inhibition at 1 µM [2]: 100%

SMILES: O=C1N(c2ccncc2)Cc2cc(-c3ccc(N4CC[C@H](F)C4)nc3)nn21 [Example 5, (S)-2-(6-(3-fluoropyrrolidin-1-yl)pyridin-3-yl)-5-(pyridin-4-yl)-4H-imidazo[1,5-b]pyrazol-6(5H)-one hydrochloride]
- inhibition at 0.1 µM [1]: 59%
- inhibition at 1 µM [2]: 89%
- Ki [3]: 26 nM

SMILES: Cn1cc(N2Cc3cc(-c4ccc(N5CC[C@H](F)C5)nc4)nn3C2=O)cn1 [Example 6, (S)-2-(6-(3-fluoropyrrolidin-1-yl)pyridin-3-yl)-5-(1-methyl-1H-pyrazol-4-yl)-4H-imidazo[1,5-b]pyrazol-6(5H)-one]
- inhibition at 0.1 µM: 43%
- inhibition at 1 µM: 93%

SMILES: Cn1ccc(N2Cc3cc(-c4ccc(N5CC[C@H](F)C5)nc4)nn3C2=O)n1 [Example 7, (S)-2-(6-(3-fluoropyrrolidin-1-yl)pyridin-3-yl)-5-(1-methyl-1H-pyrazol-3-yl)-4H-imidazo[1,5-b]pyrazol-6(5H)-one hydrochloride]
- inhibition at 0.1 µM [1]: 73%
- inhibition at 1 µM [2]: 96%

SMILES: O=C1N(c2cnn(CCF)c2)Cc2cc(-c3ccc(N4CCCC4)nc3)nn21 [Example 8, 5-(1-(2-fluoroethyl)-1H-pyrazol-4-yl)-2-(6-(pyrrolidin-1-yl)pyridin-3-yl)-4H-imidazo[1,5-b]pyrazol-6(5H)-one]
- Ki [3]: 64 nM
- inhibition at 0.1 µM: 27%
- inhibition at 1 µM: 73%

SMILES: O=C1N(c2cccnc2)Cc2cc(-c3ccc(Br)nc3)nn21 [Example 9, 2-(6-bromopyridin-3-yl)-5-(pyridin-3-yl)-4H-imidazo[1,5-b]pyrazol-6(5H)-one]
- inhibition at 0.1 µM: 45%
- inhibition at 1 µM: 62%

SMILES: O=C1N(c2cccnc2)Cc2cc(-c3cnc(N4CC[C@@H](F)C4)cn3)nn21 [Example 10, (R)-2-(5-(3-fluoropyrrolidin-1-yl)pyrazin-2-yl)-5-(pyridin-3-yl)-4,5-dihydro-6H-imidazo[1,5-b]pyrazol-6-one]
- inhibition at 0.1 µM [1]: 72%
- inhibition at 1 µM [2]: 100%

SMILES: O=C1N(c2cccnc2)Cc2cc(-c3cnc(N4CC[C@H](F)C4)cn3)nn21 [Example 11, (S)-2-(5-(3-fluoropyrrolidin-1-yl)pyrazin-2-yl)-5-(pyridin-3-yl)-4,5-dihydro-6H-imidazo[1,5-b]pyrazol-6-one hydrogen chloride salt]
- inhibition at 0.1 µM [1]: 25%
- inhibition at 1 µM [2]: 76%
- Ki [3]: 252 nM

SMILES: O=C1N(c2cccnc2)Cc2cc(-c3cnc(N4CC[C@@H](F)C4)c(F)c3)nn21 [Example 12, (R)-2-(5-fluoro-6-(3-fluoropyrrolidin-1-yl)pyridin-3-yl)-5-(pyridin-3-yl)-4,5-dihydro-6H-imidazo[1,5-b]pyrazol-6-one hydrogen chloride salt]
- inhibition at 0.1 µM [1]: 76%
- inhibition at 1 µM [2]: 90%
- Ki [3]: 34 nM

SMILES: O=C1N(c2cccnc2)Cc2cc(-c3cnc(N4CC[C@H](F)C4)c(F)c3)nn21 [Example 13, (S)-2-(5-fluoro-6-(3-fluoropyrrolidin-1-yl)pyridin-3-yl)-5-(pyridin-3-yl)-4,5-dihydro-6H-imidazo[1,5-b]pyrazol-6-one hydrogen chloride salt]
- inhibition at 0.1 µM [1]: 55%
- inhibition at 1 µM [2]: 71%
- Ki [3]: 101 nM

SMILES: Cc1nc(N2CC[C@@H](F)C2)ccc1-c1cc2n(n1)C(=O)N(c1cccnc1)C2 [Example 14, (R)-2-(6-(3-fluoropyrrolidin-1-yl)-2-methylpyridin-3-yl)-5-(pyridin-3-yl)-4,5-dihydro-6H-imidazo[1,5-b]pyrazol-6-one hydrogen chloride salt]
- inhibition at 0.1 µM [1]: 56%
- inhibition at 1 µM [2]: 85%
- Ki [3]: 80 nM

SMILES: Cc1nc(N2CC[C@H](F)C2)ccc1-c1cc2n(n1)C(=O)N(c1cccnc1)C2 [Example 15, (S)-2-(6-(3-fluoropyrrolidin-1-yl)-2-methylpyridin-3-yl)-5-(pyridin-3-yl)-4,5-dihydro-6H-imidazo[1,5-b]pyrazol-6-onehydrogen chloride salt]
- inhibition at 0.1 µM [1]: 48%
- inhibition at 1 µM [2]: 80%
- Ki [3]: 141 nM

SMILES: O=C1N(c2cncs2)Cc2cc(-c3ccc(N4CC[C@H](F)C4)nc3)nn21 [Example 17, (S)-2-(6-(3-fluoropyrrolidin-1-yl)pyridin-3-yl)-5-(thiazol-5-yl)-4,5-dihydro-6H-imidazo[1,5-b]pyrazol-6-one hydrogen chloride salt]
- Micro-radiobinding competition assay Competition at 100 nM (%) [1]: 66%
- Micro-radiobinding competition assay Competition at 1 μM (%) [2]: 95%

SMILES: Cc1ncc(N2Cc3cc(-c4ccc(N5CC[C@@H](F)C5)nc4)nn3C2=O)s1 [Example 18, (R)-2-(6-(3-fluoropyrrolidin-1-yl)pyridin-3-yl)-5-(2-methylthiazol-5-yl)-4,5-dihydro-6H-imidazo[1,5-b]pyrazol-6-one hydrogen chloride salt]
- inhibition at 0.1 µM [1]: 51%
- inhibition at 1 µM [2]: 83%
- Ki [3]: 51 nM

SMILES: Cc1ncc(N2Cc3cc(-c4ccc(N5CC[C@H](F)C5)nc4)nn3C2=O)s1 [Example 19, (S)-2-(6-(3-fluoropyrrolidin-1-yl)pyridin-3-yl)-5-(2-methylthiazol-5-yl)-4,5-dihydro-6H-imidazo[1,5-b]pyrazol-6-one hydrogen chloride salt]
- inhibition at 0.1 µM [1]: 41%
- inhibition at 1 µM [2]: 78%
- Ki [3]: 65 nM

SMILES: O=C1N(c2ccns2)Cc2cc(-c3ccc(N4CC[C@@H](F)C4)nc3)nn21 [Example 20, (R)-2-(6-(3-fluoropyrrolidin-1-yl)pyridin-3-yl)-5-(isothiazol-5-yl)-4,5-dihydro-6H-imidazo[1,5-b]pyrazol-6-one hydrogen chloride salt]
- inhibition at 0.1 µM [1]: 85%
- inhibition at 1 µM [2]: 87%

SMILES: O=C1N(c2ccns2)Cc2cc(-c3ccc(N4CC[C@H](F)C4)nc3)nn21 [Example 21, (S)-2-(6-(3-fluoropyrrolidin-1-yl)pyridin-3-yl)-5-(isothiazol-5-yl)-4,5-dihydro-6H-imidazo[1,5-b]pyrazol-6-one hydrogen chloride salt]
- inhibition at 0.1 µM [1]: 82%
- inhibition at 1 µM [2]: 90%

SMILES: Cn1cc(N2Cc3cc(-c4ccc(OCCF)nc4)nn3C2=O)cn1 [Example 22, 2-(6-(2-fluoroethoxy)pyridin-3-yl)-5-(1-methyl-1H-pyrazol-4-yl)-4,5-dihydro-6H-imidazo[1,5-b]pyrazol-6-one hydrogen chloride salt]
- inhibition at 0.1 µM [1]: 45%
- inhibition at 1 µM [2]: 89%
